Experimental data published in patent US20260306632A1, “NANOPARTICLES FOR PHOTOIMMUNE THERAPY COMPRISING PHOTOSENSITIZER AND ADJUVANT, AND USAGE THEREOF” (KOREA INSTITUTE OF SCIENCE AND TECHNOLOGY, priority 2022, published 2026).
Read-outs that look alike come from different tables or passages of the source.

Assay: Solubility of free imiquimod and imiquimod-oleic acid complex (ImO) in water
Assay type: physicochemical
Conditions: for solubility: highest/lowest concentration examined
Method: Nanoparticles (ImiMB) were synthesized using a methylene blue-oleic acid complex (MBO) and Pluronic F-127 with imiquimod in a free imiquimod state without modifying imiquimod with oleic acid. […] Subsequently, 1 ml of distilled water (DW) was used instead of ImO complex solution in the rehydration step of the thin film (FIG. 2).
Therefore, in the present invention, imiquimod was modified with an organic acid to form a cationic adjuvant-organic acid complex for solubility improvement and high-content loading, and then nanoparticles were prepared using the cationic adjuvant-organic acid complex.

Row | solubility | solubility (read-out: solubility) | Compound | solubility in water (in words)
1 | ≥ 5000 µg/mL | – | imiquimod-oleic acid complex | particle formation occurred well even at a high concentration of 5.0 mg/ml, maintaining a transparent solution form
2 | – | < 100 µg/mL | CC(C)Cn1cnc2c(N)nc3ccccc3c21 [free imiquimod, imiquimod] | not soluble in water
